From PubChem BioAssay (NCI)
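All cell lines were grown in 96-well plates and treated with compound for 48 hours. GI50 = concentration required for 50% inhibition of growth. At the TGI there is no net growth.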

How the values were obtained:
Experiment in all cases: DTP human tumour cell line panel, 48 h
A498 renal = system: A498 renal
A549 NSCLC = system: A549 NSCLC
CCRF-CEM leukemia = system: CCRF-CEM leukemia
HCT-116 colon = system: HCT-116 colon
HS 578T breast = system: HS 578T breast
M14 melanoma = system: M14 melanoma
OVCAR-8 ovarian = system: OVCAR-8 ovarian
RXF 393 renal = system: RXF 393 renal
SF-295 CNS = system: SF-295 CNS
UO-31 renal = system: UO-31 renal
MDA-N = system: MDA-N

SMILES | TGI (A498 renal) [µM] | TGI (A549 NSCLC) [µM] | TGI (CCRF-CEM leukemia) [µM] | TGI (HCT-116 colon) [µM] | TGI (HS 578T breast) [µM] | TGI (M14 melanoma) [µM] | TGI (OVCAR-8 ovarian) [µM] | TGI (RXF 393 renal) [µM] | TGI (SF-295 CNS) [µM] | TGI (UO-31 renal) [µM] | TGI (MDA-N) [µM] | GI50 (A498 renal) [µM] | GI50 (A549 NSCLC) [µM] | GI50 (CCRF-CEM leukemia) [µM] | GI50 (HCT-116 colon) [µM] | GI50 (OVCAR-8 ovarian) [µM] | GI50 (RXF 393 renal) [µM] | GI50 (SF-295 CNS) [µM] | GI50 (UO-31 renal) [µM]
O=NN1CCCS1(=O)=O | > 100 | > 100 | > 100 | > 100 | > 100 | > 100 | > 100 | > 100 | > 100 | > 100 | – | – | – | – | – | – | – | – | –
Cc1ccc(/C=C2/NC(=S)SC2=O)cc1 | – | > 100 | – | > 100 | – | > 100 | > 100 | – | > 100 | 93.1 | – | – | – | – | – | – | – | – | –
Cc1nc2cccc(F)c2c(=O)n1-c1nnc(C(F)(F)F)s1 | – | > 10 | > 10 | > 10 | > 10 | > 10 | > 10 | > 10 | > 10 | > 10 | > 10 | – | – | – | – | – | – | – | –
O=[N+]([O-])c1ccc2nc(/C=C(\O)c3ccc(Cl)cc3)c(/C=C(\O)c3ccc(Cl)cc3)nc2c1 | > 100 | > 100 | > 100 | > 100 | – | > 100 | > 100 | > 100 | > 100 | > 100 | > 100 | – | – | – | – | – | – | – | –
C=CC(OC(C)=O)c1ccc(OC(C)=O)cc1 (centres undefined) | 25.3 | 43.6 | – | 19.4 | 16.6 | 22.9 | 11.7 | 28.1 | 22.1 | 4.25 | 10.9 | – | – | – | – | – | – | – | –
COc1cc2oc(=O)cc(C)c2cc1OC | > 100 | > 100 | > 100 | > 100 | > 100 | > 100 | > 100 | – | > 100 | > 100 | > 100 | – | – | – | – | – | – | – | –
NC(=S)N/N=C1\CCCC1C(O)(C(F)(F)Cl)C(F)(F)Cl (centres undefined) | > 10 | > 10 | > 10 | > 10 | > 10 | > 10 | > 10 | > 10 | > 10 | – | – | – | – | – | – | – | – | – | –
Cc1c(C#N)c(=N)oc2ccccc12 | > 100 | > 100 | – | > 100 | > 100 | > 100 | > 100 | > 100 | > 100 | > 100 | > 100 | – | – | – | – | – | – | – | –
CS(=O)(=O)[O-].CS(=O)(=O)[O-].NC1CCCCC1N.[Pt+4] (centres undefined) | > 100 | > 100 | > 100 | > 100 | – | – | > 100 | > 100 | > 100 | > 100 | – | > 100 | 80.3 | 40.2 | 37.4 | > 74 | > 100 | > 100 | > 96.5
Cc1nc2c(n1-c1ccccc1)C(=O)c1ccccc1C2=O | > 100 | > 100 | > 100 | 73.1 | – | > 100 | > 100 | > 100 | > 100 | > 100 | – | – | – | – | – | – | – | – | –
NC(=S)NNC(=S)NC(=O)c1ccco1 | – | > 10 | > 10 | > 10 | > 10 | > 10 | > 10 | > 10 | – | > 10 | > 10 | – | – | – | – | – | – | – | –
COc1cc2c(cc1OC)C(=O)/C(=C/c1ccc(O)cc1)CC2 | – | > 10 | > 10 | > 10 | > 10 | > 10 | > 10 | > 10 | > 10 | 4.32 | > 10 | – | – | – | – | – | – | – | –
CCn1c(=O)c2c3ccc(OC(C)=O)cc3[nH]c2c2ccc(OC(C)=O)cc21 | – | > 100 | > 100 | 30.1 | > 100 | > 100 | > 100 | > 100 | > 100 | > 100 | > 100 | – | – | – | – | – | – | – | –
O=C(O)COc1cc(-c2ccccc2)nc2ccccc12 | > 100 | > 100 | > 100 | > 100 | > 100 | > 100 | > 100 | – | > 100 | > 100 | 85.7 | – | – | – | – | – | – | – | –
CCOC(=O)CCC(NC(=O)OCc1ccccc1)C(=O)NC(CCC(=O)OCC)C(=O)NC(CCC(=O)OCC)C(=O)NNC(=O)OC(C)(C)C (centres undefined) | > 100 | > 100 | > 100 | > 100 | > 100 | > 100 | > 100 | > 100 | – | > 100 | > 100 | – | – | – | – | – | – | – | –
O=c1c2cc(Br)ccc2ncn1COCc1ccccc1 | > 100 | > 100 | > 100 | > 100 | – | > 100 | > 1 | > 100 | > 100 | > 100 | – | – | – | – | – | – | – | – | –
C=C(CCOC)CCC1CCCCC(=C)[C@H]1O (some centres undefined) | > 100 | > 100 | > 100 | > 100 | > 100 | > 100 | > 100 | – | > 100 | > 100 | > 100 | – | – | – | – | – | – | – | –
C[C@]12CCC(=O)C=C1CC[C@@H]1[C@@H]2[C@@H](O)C[C@@]2(C)[C@H]1CC[C@]2(O)C(=O)COC(=O)CCC1CCCC1 | > 100 | > 100 | > 100 | > 100 | – | – | > 100 | > 100 | > 100 | > 100 | – | – | – | – | – | – | – | – | –
O=C1c2ccccc2C(=O)c2nn(N=P(CP(=Nn3nc4c(n3)C(=O)c3ccccc3C4=O)(c3ccccc3)c3ccccc3)(c3ccccc3)c3ccccc3)nc21 | > 100 | > 100 | > 100 | > 100 | > 100 | > 100 | > 100 | > 100 | > 100 | – | > 100 | – | – | – | – | – | – | – | –
NNC(=O)Cn1ccnn1 | – | > 100 | > 100 | – | – | > 100 | > 100 | – | > 100 | – | – | – | – | – | – | – | – | – | –
Cc1cn(CCOCCOC(=O)NC(CCCNC(N)=O)C(=O)O)c(=O)[nH]c1=O (centres undefined) | – | > 100 | > 100 | > 100 | > 100 | > 100 | > 100 | > 100 | > 100 | > 100 | > 100 | – | – | – | – | – | – | – | –
N#C/C(C(=O)Nc1ccccc1)=C(/N)N1CCCCC1 | – | > 100 | > 100 | > 100 | – | > 100 | > 100 | – | > 100 | > 100 | > 100 | – | – | – | – | – | – | – | –
